How the values were obtained:
[1] = tested on: KRas-mediated phosphorylation of ERK in AsPC-1 cells; test: Inhibition of KRas-mediated phosphorylation of ERK (Cisbio HTRF pERK), AsPC-1 cells; format: cell-based; conditions: Homo sapiens; for IC50: ASPC1, AsPC-1 cells, HTRF pERK; for inhibition at 0.1 µM: ASPC1, 3 h, single point, 100 nM compound, 3 hrs, AsPC-1 cells
Procedure, shortened: (§1)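 Cells were seeded at 6,000 per well and treated for 3 hrs with compound in a 10-dose, 3-fold series from 10 uM (0.8% final DMSO), with 0.2 uM Trametinib as Min control. Lysates made at 4° C over 40 mins were incubated 2 hrs at room temperature with d2- and Cryptate-labelled antibodies, then read by HTRF.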

[2] = tested on: KRas-mediated phosphorylation of ERK in H727 cells; test: Inhibition of KRas-mediated phosphorylation of ERK (Cisbio HTRF pERK), H727 cells; format: cell-based; conditions: Homo sapiens; for IC50: NCI-H727, H727 cells, HTRF pERK; for inhibition at 0.1 µM: NCI-H727, 3 h, single point, 100 nM compound, 3 hrs, H727 cells
Procedure, shortened: as §1

[3] = tested on: KRas-mediated phosphorylation of ERK in A549 cells; test: Inhibition of KRas-mediated phosphorylation of ERK (Cisbio HTRF pERK), A549 cells; format: cell-based; conditions: Homo sapiens, HTRF pERK
Experimental: (§2) Inhibition of KRas Phosphorylation of ERK (HTRF) by Exemplary Compounds of Formula (I) Cisbio HTRF Advanced PERK Assay Catalog #64[…] […] Add 10 mL of media to stop trypsinizing. Pipette the cells into a conical bottom 50 mL centrifuge tube and centrifuge 5 min×1000 rpm. […] Re-suspend the cell pellet in media, take a cell count, and then adjust the cell density using fresh media. […] Seed 6,000 cells into cell culture plate with 50 μL media. […] Use Tecan to complete the compound addition. Compounds start from 10 uM top, 3-fold dilution, and 10 doses. The final DMSO concentration is 0.8%. Dispensed 0.2 uM Trametinib as Min control. […] Incubate cell plate for 3 hrs in the incubator. […] Dilute 1 volume of 4× lysis buffer with 3 volumes of deionized water. […] Keep lysis buffer on the ice. […] At the end of the compound treatment, flick-off the media. […] Add 35 μL of lysis buffer per well using a Multidrop Combi. Then place on a plate agitator shaking at 300 rpm at 4° C. for 40 mins. […] Make up the HTRF antibody buffer. For each assay plate, mix 50 μL of d2-conjugate antibody with 950 μL of detection buffer. Similarly, mix 50 μL of Cryptate antibody with 950 μL of detection buffer. Then mix the two diluted antibodies together. […] Dispense 3.4 μL the antibody buffer to wells of an empty assay plate. Seal the plate and centrifuge plate 30 sec×1000 rpm. […] At the end of the 4° C. lysis, centrifuge the lysate plates 3 mins×1500 rpm. […] Use the Bravo to transfer 13.6 μL of lysate from cell culture plate to assay plate. Then incubate assay plate for 2 hrs at room temperature. 8. At the end of incubation, read plate on the Envision after centrifuging plate 30 sec×1000 rpm.

[4] = tested on: KRas-mediated phosphorylation of ERK in H460 cells; test: Inhibition of KRas-mediated phosphorylation of ERK (Cisbio HTRF pERK), H460 cells; format: cell-based; conditions: Homo sapiens; for inhibition at 0.1 µM: NCI-H460, 3 h, single point, 100 nM compound, 3 hrs
Experimental: as §2

KRas^G12D = target: T1, KRas^G12D (Homo sapiens, UniProt P01116, G12D); test: KRas binding assay (TR-FRET tracer displacement), KRas G12D
T1 construct: Biotinylated KRas (corresponding to amino acids 1-169, produced at Accelegan Inc.); biotin (biotinylated); purchased Accelegan Inc

KRas^G12R = target: T2, KRas^G12R (Homo sapiens, UniProt P01116, G12R); test: KRas binding assay (TR-FRET tracer displacement), KRas G12R
T2 construct: Biotinylated KRas (corresponding to amino acids 1-169, produced at Accelegan Inc.); biotin (biotinylated); purchased Accelegan Inc

KRas^G12V = target: T3, KRas^G12V (Homo sapiens, UniProt P01116, G12V); test: KRas binding assay (TR-FRET tracer displacement), KRas G12V
T3 construct: Biotinylated KRas (corresponding to amino acids 1-169, produced at Accelegan Inc.); biotin (biotinylated); purchased Accelegan Inc

[5] = tested on: KRas-mediated phosphorylation of ERK in HCT116 cells; test: Inhibition of KRas-mediated phosphorylation of ERK (Cisbio HTRF pERK), HCT116 cells; format: cell-based; conditions: Homo sapiens, HCT-116, 3 h, single point, 100 nM compound, 3 hrs
Experimental: as §2

T3 sequence (P01116 1-169 isoform P01116-2 G12V): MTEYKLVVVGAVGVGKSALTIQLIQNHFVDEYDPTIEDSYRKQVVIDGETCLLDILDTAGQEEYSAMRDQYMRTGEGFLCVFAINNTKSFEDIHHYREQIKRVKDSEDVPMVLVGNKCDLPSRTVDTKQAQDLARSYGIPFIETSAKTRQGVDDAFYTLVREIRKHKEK
T1 sequence (P01116 1-169 isoform P01116-2 G12D): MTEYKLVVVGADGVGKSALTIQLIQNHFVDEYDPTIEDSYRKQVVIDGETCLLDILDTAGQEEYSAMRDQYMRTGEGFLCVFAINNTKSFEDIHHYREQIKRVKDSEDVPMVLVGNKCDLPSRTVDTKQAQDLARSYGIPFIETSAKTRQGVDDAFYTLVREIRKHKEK
T2 sequence (P01116 1-169 isoform P01116-2 G12R): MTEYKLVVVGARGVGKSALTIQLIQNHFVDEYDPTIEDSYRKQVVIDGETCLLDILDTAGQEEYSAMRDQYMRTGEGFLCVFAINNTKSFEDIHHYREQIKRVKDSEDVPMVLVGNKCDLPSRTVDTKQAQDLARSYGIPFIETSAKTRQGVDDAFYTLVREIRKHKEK

SMILES | IC50 [1] | IC50 [2] | IC50 [3] | IC50 ([4]; NCI-H460, HTRF pERK) | IC50 (KRas^G12D) | IC50 (KRas^G12R) | IC50 (KRas^G12V) | inhibition at 0.1 µM [1] | inhibition at 0.1 µM [2] | inhibition at 0.1 µM [4] | inhibition at 0.1 µM [5]
CCc1c(F)ccc2cc(O)cc(-c3ncc4c(N5C[C@H]6C[C@@H](C5)C(=O)NC6=O)nc(OC[C@@]56CCCN5C[C@H](F)C6)nc4c3F)c12 [Example 591, (1R,5S)-7-(7-(8-ethyl-7-fluoro-3-hydroxynaphthalen-1-yl)-8-fluoro-2-(((2R,7aS)-2-fluorotetrahydro-1H-pyrrolizin-7a(5H)-yl)methoxy)pyrido[4,3-d]pyrimidin-4-yl)-3,7-diazabicyclo[3.3.1]nonane-2,4-dione] | 1540 nM | 245 nM | 357 nM | 138 nM | – | – | – | – | – | – | –
CCc1c(F)ccc2cc(O)cc(-c3ncc4c(N5CCC[S+]([O-])CC5)nc(OC[C@@]56CCCN5C[C@H](F)C6)nc4c3F)c12 (stereo partly drawn) [Example 558, 4-(7-(8-ethyl-7-fluoro-3-hydroxynaphthalen-1-yl)-8-fluoro-2-(((2R,7aS)-2-fluorohexahydro-1H-pyrrolizin-7a-yl)methoxy)pyrido[4,3-d]pyrimidin-4-yl)-1,4-thiazepane 1-oxide] | 312 nM | 603 nM | 822 nM | – | < 2 nM | < 2 nM | < 2 nM | – | – | – | –
CCc1c(F)ccc2cc(O)cc(-c3ncc4c(N5CCC[C@@](C)(O)C5)nc(OCC5(CN(C)C)CC5C)nc4c3F)c12 (stereo partly drawn) [Example 702, (3R)-1-(2-((1-((dimethylamino)methyl)-2-methylcyclopropyl)methoxy)-7-(8-ethyl-7-fluoro-3-hydroxynaphthalen-1-yl)-8-fluoropyrido[4,3-d]pyrimidin-4-yl)-3-methylpiperidin-3-ol] | 32 nM | 149 nM | – | – | – | – | – | 56% | 7% | 61% | 37%
CCc1c(F)ccc2cc(O)cc(-c3ncc4c(NC5CC6(CCCO6)C5)nc(OC[C@@]56CCCN5C[C@H](F)C6)nc4c3F)c12 (stereo partly drawn) [Example 554, 4-(4-(5-oxaspiro[3.4]octan-2-ylamino)-8-fluoro-2-(((2R,7aS)-2-fluorohexahydro-1H-pyrrolizin-7a-yl)methoxy)pyrido[4,3-d]pyrimidin-7-yl)-5-ethyl-6-fluoronaphthalen-2-ol] | 2380 nM | 410 nM | 742 nM | – | 79 nM | 10 nM | 9 nM | – | – | – | –
CCc1c(F)ccc2cc(O)cc(-c3ncc4c(NC5CCCc6c(C(=O)N(C)C)nn(C)c65)nc(OC[C@@]56CCCN5C[C@H](F)C6)nc4c3F)c12 (stereo partly drawn) [Example 672, 7-((7-(8-ethyl-7-fluoro-3-hydroxynaphthalen-1-yl)-8-fluoro-2-(((2R,7aS)-2-fluorohexahydro-1H-pyrrolizin-7a-yl)methoxy)pyrido[4,3-d]pyrimidin-4-yl)amino)-N,N,1-trimethyl-4,5,6,7-tetrahydro-1H-indazole-3-carboxamide] | 469 nM | 1260 nM | 541 nM | – | 8 nM | 4 nM | 5 nM | – | – | – | –
CCc1c(F)ccc2cc(O)cc(-c3ncc4c(N5CCC[C@@](C)(O)C5)nc(OCC5(CN)CC5)nc4c3F)c12 [Example 536, (R)-1-(2-((1-(aminomethyl)cyclopropyl)methoxy)-7-(8-ethyl-7-fluoro-3-hydroxynaphthalen-1-yl)-8-fluoropyrido[4,3-d]pyrimidin-4-yl)-3-methylpiperidin-3-ol] | 4550 nM | 3440 nM | – | – | 5 nM | 9 nM | 5 nM | – | – | -9% | 9%
CCc1c(F)ccc2cc(O)cc(-c3ncc4c(N5CC6C(=O)NC(=O)C6C5C)nc(OC[C@@]56CCCN5C[C@H](F)C6)nc4c3F)c12 (stereo partly drawn) [Example 590, 5-(7-(8-ethyl-7-fluoro-3-hydroxynaphthalen-1-yl)-8-fluoro-2-(((2R,7aS)-2-fluorohexahydro-1H-pyrrolizin-7a-yl)methoxy)pyrido[4,3-d]pyrimidin-4-yl)-4-methyltetrahydropyrrolo[3,4-c]pyrrole-1,3(2H,3aH)-dione] | 505 nM | 833 nM | 494 nM | – | 2 nM | 2 nM | 3 nM | – | – | – | –
CCc1c(F)ccc2cc(O)cc(-c3ncc4c(NC[C@@H]5C[C@H](CO)NC5=O)nc(OC[C@@]56CCCN5C[C@H](F)C6)nc4c3F)c12 [Example 576, (3S,5R)-3-(((7-(8-ethyl-7-fluoro-3-hydroxynaphthalen-1-yl)-8-fluoro-2-(((2R,7aS)-2-fluorotetrahydro-1H-pyrrolizin-7a(5H)-yl)methoxy)pyrido[4,3-d]pyrimidin-4-yl)amino)methyl)-5-(hydroxymethyl)pyrrolidin-2-one] | – | > 10000 nM | – | – | 45 nM | 37 nM | 10 nM | 1% | -2% | -3% | -15%
CCc1c(F)ccc2cc(O)cc(-c3ncc4c(N5CCCCCC(P(C)(C)=O)C5)nc(OC[C@@]56CCCN5C[C@H](F)C6)nc4c3F)c12 (stereo partly drawn) [Example 864, (1-(7-(8-ethyl-7-fluoro-3-hydroxynaphthalen-1-yl)-8-fluoro-2-(((2R,7aS)-2-fluorotetrahydro-1H-pyrrolizin-7a(5H)-yl)methoxy)pyrido[4,3-d]pyrimidin-4-yl)azocan-3-yl)dimethylphosphine oxide] | > 10000 nM | > 10000 nM | – | – | 2130 nM | 1790 nM | 946 nM | – | – | – | –
O=C1CC2CN(c3nc(OCC45CCCN4CCC5)nc4c(F)c(-c5cccc6cccc(F)c56)ncc34)CCC2C(=O)N1 (centres unmarked) [Example 526, 6-(8-fluoro-7-(8-fluoronaphthalen-1-yl)-2-((hexahydro-1H-pyrrolizin-7a-yl)methoxy)pyrido[4,3-d]pyrimidin-4-yl)hexahydro-2,6-naphthyridine-1,3(2H,4H)-dione] | > 10000 nM | > 10000 nM | – | – | > 100000 nM | 67700 nM | > 100000 nM | – | – | – | –
CCc1c(F)ccc2cc(O)cc(-c3ncc4c(NCc5cn(C(=O)N(C)C)nc5NC(=O)C5CC(O)C5)nc(OC[C@@]56CCCN5C[C@H](F)C6)nc4c3F)c12 (stereo partly drawn) [Example 693, 4-(((7-(8-ethyl-7-fluoro-3-hydroxynaphthalen-1-yl)-8-fluoro-2-(((2R,7aS)-2-fluorohexahydro-1H-pyrrolizin-7a-yl)methoxy)pyrido[4,3-d]pyrimidin-4-yl)amino)methyl)-3-(3-hydroxycyclobutanecarboxamido)-N,N-dimethyl-1H-pyrazole-1-carboxamide] | > 10000 nM | > 10000 nM | – | – | 509 nM | 38 nM | 25 nM | – | – | – | –
CCc1c(F)ccc2cc(O)cc(-c3ncc4c(N5CCC(N6C(=O)OC7CN(C(C)=O)CC76)CC5)nc(OC[C@@]56CCCN5C[C@H](F)C6)nc4c3F)c12 (stereo partly drawn) [Example 689, 5-acetyl-3-(1-(7-(8-ethyl-7-fluoro-3-hydroxynaphthalen-1-yl)-8-fluoro-2-(((2R,7aS)-2-fluorotetrahydro-1H-pyrrolizin-7a(5H)-yl)methoxy)pyrido[4,3-d]pyrimidin-4-yl)piperidin-4-yl)hexahydro-2H-pyrrolo[3,4-d]oxazol-2-one] | > 10000 nM | > 10000 nM | – | – | 1650 nM | 349 nM | 98 nM | – | – | – | –
CCc1c(F)ccc2cc(O)cc(-c3ncc4c(N5CCC(CC6CCCO6)C5)nc(OC[C@@]56CCCN5C[C@H](F)C6)nc4c3F)c12 (stereo partly drawn) [Example 597, 5-ethyl-6-fluoro-4-(8-fluoro-2-(((2R,7aS)-2-fluorotetrahydro-1H-pyrrolizin-7a(5H)-yl)methoxy)-4-(3-((tetrahydrofuran-2-yl)methyl)pyrrolidin-1-yl)pyrido[4,3-d]pyrimidin-7-yl)naphthalen-2-ol] | 4800 nM | 2360 nM | – | – | 867 nM | 194 nM | 82 nM | – | – | – | –
